A short description of this series: xn = mol fraction of the nth substance listed. The following applies: 100 kPa, Liquid, Vibrating tube method.

Numbers after ± are expanded uncertainties.

Consider `[Cl-].[Rb+]` [rubidium chloride] + O, for which the mass density (293.15 K, x1 = 0.01) stood at 1048.3 ± 0.2 kg/m3; the mass density (293.15 K, x1 = 0.03) was determined as 1144.2 ± 0.3 kg/m3; the mass density (293.15 K, x1 = 0.05) is on record as 1237.9 ± 0.3 kg/m3; the mass density (303.15 K, x1 = 0.01) worked out at 1044.8 ± 0.2 kg/m3; the mass density (303.15 K, x1 = 0.03) was determined as 1139.8 ± 0.3 kg/m3; the mass density (303.15 K, x1 = 0.05) was 1232.8 ± 0.3 kg/m3. The mass density runs as follows: (313.15 K, x1 = 0.01) 1040.7 ± 0.2 kg/m3; (313.15 K, x1 = 0.03) 1135 ± 0.3 kg/m3; (313.15 K, x1 = 0.05) 1227.5 ± 0.3 kg/m3; (323.15 K, x1 = 0.01) 1036.1 ± 0.2 kg/m3; (323.15 K, x1 = 0.03) 1130 ± 0.3 kg/m3; (323.15 K, x1 = 0.05) 1222 ± 0.3 kg/m3. Further, the mass density reads like this: (333.15 K, x1 = 0.01) 1031.2 ± 0.2 kg/m3; (333.15 K, x1 = 0.03) 1124.7 ± 0.3 kg/m3; (333.15 K, x1 = 0.05) 1216.3 ± 0.3 kg/m3.

`[F-].[Rb+]` [rubidium fluoride (RbF)] + O: the mass density was 1048.7 ± 0.2 kg/m3 (293.15 K, x1 = 0.01); 1150.6 ± 0.3 kg/m3 (293.15 K, x1 = 0.03); 1250.3 ± 0.4 kg/m3 (293.15 K, x1 = 0.05); 1045.7 ± 0.2 kg/m3 (303.15 K, x1 = 0.01); 1146.5 ± 0.3 kg/m3 (303.15 K, x1 = 0.03); 1246.1 ± 0.4 kg/m3 (303.15 K, x1 = 0.05). Besides, the mass density (313.15 K, x1 = 0.01) is listed as 1042 ± 0.2 kg/m3; the mass density (313.15 K, x1 = 0.03) came out at 1141.9 ± 0.3 kg/m3; the mass density (313.15 K, x1 = 0.05) is recorded as 1241.4 ± 0.4 kg/m3; the mass density (323.15 K, x1 = 0.01) is 1037.6 ± 0.2 kg/m3; the mass density (323.15 K, x1 = 0.03) is reported as 1137 ± 0.3 kg/m3; the mass density (323.15 K, x1 = 0.05) is 1236.2 ± 0.4 kg/m3. In addition, the mass density by setting is: (333.15 K, x1 = 0.01) 1032.6 ± 0.2 kg/m3; (333.15 K, x1 = 0.03) 1131.6 ± 0.3 kg/m3; (333.15 K, x1 = 0.05) 1230.6 ± 0.4 kg/m3.

With `[I-].[Rb+]` [rubidium iodide (RbI)] + O, the mass density is, setting by setting: (293.15 K, x1 = 0.01) 1088.1 ± 0.2 kg/m3; (293.15 K, x1 = 0.03) 1259.7 ± 0.4 kg/m3; (293.15 K, x1 = 0.05) 1423.2 ± 0.5 kg/m3; (303.15 K, x1 = 0.01) 1084.2 ± 0.2 kg/m3; (303.15 K, x1 = 0.03) 1254.2 ± 0.4 kg/m3; (303.15 K, x1 = 0.05) 1416.3 ± 0.5 kg/m3. In addition, the mass density runs as follows: (313.15 K, x1 = 0.01) 1079.8 ± 0.2 kg/m3; (313.15 K, x1 = 0.03) 1248.4 ± 0.4 kg/m3; (313.15 K, x1 = 0.05) 1409.2 ± 0.5 kg/m3; (323.15 K, x1 = 0.01) 1074.9 ± 0.3 kg/m3; (323.15 K, x1 = 0.03) 1242.3 ± 0.4 kg/m3; (323.15 K, x1 = 0.05) 1402 ± 0.5 kg/m3. For the same molecule, the mass density is, setting by setting: (333.15 K, x1 = 0.01) 1069.6 ± 0.3 kg/m3; (333.15 K, x1 = 0.03) 1235.9 ± 0.4 kg/m3; (333.15 K, x1 = 0.05) 1394.6 ± 0.5 kg/m3.

Consider `[Br-].[Na+]` [sodium bromide] + O, for which the mass density (293.15 K, x1 = 0.01) was found to be 1043.6 ± 0.2 kg/m3; the mass density (293.15 K, x1 = 0.03) turned out to be 1129.5 ± 0.3 kg/m3; the mass density (293.15 K, x1 = 0.05) is on record as 1217.1 ± 0.3 kg/m3; the mass density (303.15 K, x1 = 0.01) turned out to be 1040 ± 0.2 kg/m3; the mass density (303.15 K, x1 = 0.03) is reported as 1125.2 ± 0.3 kg/m3; the mass density (303.15 K, x1 = 0.05) is 1211.8 ± 0.3 kg/m3. Also, the mass density came to 1035.8 ± 0.2 kg/m3 (313.15 K, x1 = 0.01); 1120.4 ± 0.3 kg/m3 (313.15 K, x1 = 0.03); 1206.2 ± 0.3 kg/m3 (313.15 K, x1 = 0.05); 1031.1 ± 0.2 kg/m3 (323.15 K, x1 = 0.01); 1115.1 ± 0.3 kg/m3 (323.15 K, x1 = 0.03); 1200.2 ± 0.3 kg/m3 (323.15 K, x1 = 0.05). Further, the mass density is, setting by setting: (333.15 K, x1 = 0.01) 1026 ± 0.2 kg/m3; (333.15 K, x1 = 0.03) 1109.4 ± 0.3 kg/m3; (333.15 K, x1 = 0.05) 1194 ± 0.3 kg/m3.

`[Cl-].[Na+]` [sodium chloride] + O: the mass density runs as follows: (293.15 K, x1 = 0.01) 1021.3 ± 0.2 kg/m3; (293.15 K, x1 = 0.03) 1066.2 ± 0.2 kg/m3; (293.15 K, x1 = 0.05) 1110.8 ± 0.3 kg/m3; (303.15 K, x1 = 0.01) 1018.3 ± 0.2 kg/m3; (303.15 K, x1 = 0.03) 1062.4 ± 0.2 kg/m3; (303.15 K, x1 = 0.05) 1106.2 ± 0.3 kg/m3. The mass density reads like this: (313.15 K, x1 = 0.03) 1058 ± 0.2 kg/m3; (313.15 K, x1 = 0.05) 1101.6 ± 0.3 kg/m3; (323.15 K, x1 = 0.01) 1010.1 ± 0.2 kg/m3; (323.15 K, x1 = 0.03) 1052.4 ± 0.2 kg/m3; (323.15 K, x1 = 0.05) 1096.4 ± 0.3 kg/m3; (333.15 K, x1 = 0.01) 1005.1 ± 0.2 kg/m3. Further, the mass density (333.15 K, x1 = 0.03) is 1047.6 ± 0.2 kg/m3 and the mass density (333.15 K, x1 = 0.05) worked out at 1090.9 ± 0.3 kg/m3.

Take `[F-].[Na+]` [sodium fluoride] + O: the mass density (293.15 K, x1 = 0.01) was found to be 1022.7 ± 0.2 kg/m3; the mass density (303.15 K, x1 = 0.01) turned out to be 1019.7 ± 0.2 kg/m3; the mass density (313.15 K, x1 = 0.01) amounted to 1016 ± 0.2 kg/m3; the mass density (323.15 K, x1 = 0.01) stood at 1011.5 ± 0.2 kg/m3; the mass density (333.15 K, x1 = 0.01) is 1006.5 ± 0.2 kg/m3.

As for `[I-].[Na+]` [sodium iodide] + O, the mass density by setting is: (293.15 K, x1 = 0.01) 1061.7 ± 0.2 kg/m3; (293.15 K, x1 = 0.03) 1186.7 ± 0.3 kg/m3; (293.15 K, x1 = 0.05) 1309.5 ± 0.4 kg/m3; (303.15 K, x1 = 0.01) 1058.4 ± 0.2 kg/m3; (303.15 K, x1 = 0.03) 1181.8 ± 0.3 kg/m3; (303.15 K, x1 = 0.05) 1303.2 ± 0.4 kg/m3. Further, the mass density (313.15 K, x1 = 0.01) was determined as 1054.2 ± 0.2 kg/m3; the mass density (313.15 K, x1 = 0.03) is on record as 1176.3 ± 0.3 kg/m3; the mass density (313.15 K, x1 = 0.05) was 1296.5 ± 0.4 kg/m3; the mass density (323.15 K, x1 = 0.01) is 1049.5 ± 0.2 kg/m3; the mass density (323.15 K, x1 = 0.03) is 1169.1 ± 0.3 kg/m3; the mass density (323.15 K, x1 = 0.05) worked out at 1289.5 ± 0.4 kg/m3. The mass density is given as 1044.1 ± 0.2 kg/m3 (333.15 K, x1 = 0.01); 1163.4 ± 0.3 kg/m3 (333.15 K, x1 = 0.03); 1282.2 ± 0.4 kg/m3 (333.15 K, x1 = 0.05).
